Data taken from patent US20240041042A1, “1-(PYRIDYL)-5-AZINYLPYRAZOLE DERIVATIVES, AND THEIR USE FOR CONTROL OF UNDESIRED PLANT GROWTH” (Bayer Aktiengesellschaft, priority 2020, published 2024).
Where two headings read alike, the source gives them in different places.

Columns and labels:
Type in all cases: in vivo
Avena fatua (AVEFA) [1] = assay: Pre-emergence herbicidal action against AVEFA; details: 320 g/ha, visual scoring after about 3 weeks vs untreated controls
Method in brief: (§1)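 Pre-emergence soil-surface spray, WP/EC formulation, 0.5% additive, 600 l/ha water, rates of 320 g/ha or lower. Greenhouse, ~3 wk. Visual score, % of untreated control (100% = plants dead, 0% = like control).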

Lolium rigidum (LOLRI) [2] = assay: Pre-emergence herbicidal action against LOLRI
Method in brief: as §1

[3] = test system: Verconica persica (VERPE); assay: Post-emergence herbicidal action against VERPE
Method in brief: (§2)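 Greenhouse plants sprayed at the one-leaf stage, 2–3 weeks after sowing, with WP or EC formulations plus 0.5% additive at 600 l/ha water. Activity rated visually after about 3 weeks versus untreated controls (100% = dead, 0% = like control), at 320 g/ha or lower.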

[4] = test system: Alopecurus myosuroides (ALOMY); assay: Post-emergence herbicidal action against ALOMY; details: visual rating about 3 weeks after treatment vs untreated controls (100% = plants have died, 0% = like control plants)
Method in brief: as §2

[5] = test system: Pharbitis purpurea (PHBPU); assay: Post-emergence herbicidal action against PHBPU; details: dosage 80 g/ha
Method in brief: as §2

[6] = test system: Pharbitis purpurea (PHBPU); assay: Pre-emergence herbicidal action against PHBPU
Method in brief: as §1

[7] = test system: Echinochloa crus-galli (ECHCG); assay: Pre-emergence herbicidal action against ECHCG
Method in brief: as §1

Setaria viridis (SETVI) [8] = assay: Post-emergence herbicidal action against SETVI
Method in brief: as §2

[9] = test system: Polygonum convolvulus (POLCO); assay: Pre-emergence herbicidal action against POLCO
Method in brief: as §1

[10] = test system: Polygonum convolvulus (POLCO); assay: Post-emergence herbicidal action against POLCO
Method in brief: as §2

[11] = test system: Amaranthus retroflexus (AMARE); assay: Pre-emergence herbicidal action against AMARE; details: visual scoring after about 3 weeks vs untreated controls
Method in brief: as §1

[12] = test system: Abutilon theophrasti (ABUTH); assay: Pre-emergence herbicidal action against ABUTH; details: 100% = plants have died
Method in brief: as §1

[13] = test system: Matricaria inodora (MATIN); assay: Post-emergence herbicidal action against MATIN
Method in brief: as §2

[14] = test system: Echinochloa crus-galli (ECHCG); assay: Post-emergence herbicidal action against ECHCG
Method in brief: as §2

Avena fatua (AVEFA) [15] = assay: Post-emergence herbicidal action against AVEFA; details: visual rating about 3 weeks after treatment
Method in brief: as §2

[16] = test system: Amaranthus retroflexus (AMARE); assay: Post-emergence herbicidal action against AMARE
Method in brief: as §2

[17] = test system: Matricaria inodora (MATIN); assay: Pre-emergence herbicidal action against MATIN
Method in brief: as §1

[18] = test system: Abutilon theophrasti (ABUTH); assay: Post-emergence herbicidal action against ABUTH; details: visual rating about 3 weeks after treatment vs untreated controls (100% = plants have died, 0% = like control plants)
Method in brief: as §2

Oryza sativa (ORYSA) = details: crop plant compatibility
Method in brief: (§3)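 Percent effect on the crop was judged by eye against untreated controls, where 0% means like control and 100% means dead plants. Plants had been sprayed post-emergence at the one-leaf stage and then kept under optimum greenhouse conditions for about 3 weeks.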

Zea mays (ZEAMX) = test system: Zea mays (ZEAMX)
Method in brief: as §3

[19] = test system: Alopecurus myosuroides (ALOMY); assay: Pre-emergence herbicidal action against ALOMY; details: scored visually after about 3 weeks, 100% = plants have died
Method in brief: as §1

Setaria viridis (SETVI) [20] = assay: Pre-emergence herbicidal action against SETVI
Method in brief: as §1

[21] = test system: Verconica persica (VERPE); assay: Pre-emergence herbicidal action against VERPE
Method in brief: as §1

Viola tricolor (VIOTR) [22] = assay: Pre-emergence herbicidal action against VIOTR
Method in brief: as §1

Viola tricolor (VIOTR) [23] = assay: Post-emergence herbicidal action against VIOTR
Method in brief: as §2

Lolium rigidum (LOLRI) [24] = assay: Post-emergence herbicidal action against LOLRI
Method in brief: as §2

[25] = Dosage column 320 g/ha (title prints 3200 g/ha), scored visually after about 3 weeks
[26] = 80 g/ha, effect in comparison to untreated controls
[27] = 320 g/ha, visual rating about 3 weeks after treatment

Structure (SMILES)	Pre-emergence action against AVEFA in % (Avena fatua (AVEFA) [1]) [%]	Pre-emergence action against LOLRI in % (Lolium rigidum (LOLRI) [2]; dosage 80 g/ha) [%]	Pre-emergence action against LOLRI in % (Lolium rigidum (LOLRI) [2]; dosage 320 g/ha) [%]	Pre-emergence action against PHBPU in % ([6]; dosage 320 g/ha) [%]	Pre-emergence action against ECHCG in % ([7]; dosage 80 g/ha) [%]	Pre-emergence action against ECHCG in % ([7]; dosage 320 g/ha) [%]	Pre-emergence action against POLCO in % ([9]; dosage 320 g/ha) [%]	Pre-emergence action against AMARE in % ([11]; 80 g/ha) [%]	Pre-emergence action against AMARE in % ([11]; 320 g/ha) [%]	Pre-emergence action against ABUTH [12, 25] [%]	Post-emergence action against ECHCG in % ([14]; dosage 80 g/ha) [%]	Pre-emergence action against MATIN in % ([17]; dosage 320 g/ha) [%]	Post-emergence action against ABUTH in % ([18]; 80 g/ha) [%]	Pre-emergence action against ALOMY ([19]; 80 g/ha) [%]	Pre-emergence action against ALOMY ([19]; 320 g/ha) [%]	Pre-emergence action against SETVI in % (Setaria viridis (SETVI) [20]; dosage 80 g/ha) [%]	Pre-emergence action against SETVI in % (Setaria viridis (SETVI) [20]; dosage 320 g/ha) [%]	Pre-emergence action against VERPE in % ([21]; dosage 320 g/ha) [%]	Pre-emergence action against VIOTR in % (Viola tricolor (VIOTR) [22]; 320 g/ha, Viola tricolor) [%]	Pre-emergence action against VIOTR in % (Viola tricolor (VIOTR) [22]; dosage 80 g/ha) [%]	further results
O=C(O)COc1nn(-c2ccccn2)c(-c2cncc(F)c2)c1Cl [Example I-81]	80	90	100	100	90	100	90	80	90	90	90	90	80	80	100	90	100	90	100	80	Post-emergence action against VERPE in % ([3]; dosage 80 g/ha): 90%; Post-emergence action against ALOMY in % ([4]; 80 g/ha): 90%; Post-emergence action against PHBPU in % [5]: 90%; Pre-emergence action against PHBPU in % ([6]; dosage 80 g/ha): 90%; Post-emergence action against SETVI in % (Setaria viridis (SETVI) [8]; dosage 80 g/ha): 80%; Pre-emergence action against POLCO in % ([9]; dosage 80 g/ha): 90%; Post-emergence action against POLCO in % ([10]; dosage 80 g/ha): 80%; Post-emergence action against MATIN in % ([13]; dosage 80 g/ha): 90%; Post-emergence action against AVEFA in % (Avena fatua (AVEFA) [15]; 80 g/ha): 90%; Post-emergence action against AMARE in % ([16]; 80 g/ha, visual rating about 3 weeks after treatment vs untreated controls (100% = plants have died, 0% = like control plants)): 90%; Pre-emergence action against MATIN in % ([17]; dosage 80 g/ha): 80%; Post-emergence action against ORYSA in % (Oryza sativa (ORYSA); 20 g/ha, effect vs untreated controls): 0%; Post-emergence action against ORYSA in % (Oryza sativa (ORYSA); [26]): 0%; Post-emergence action against ZEAMX in % (crop plant compatibility) (Zea mays (ZEAMX); 20 g/ha, ZEAMX, effect in comparison to untreated controls): 0%; Post-emergence action against ZEAMX in % (Zea mays (ZEAMX); crop plant compatibility, 80 g/ha, effect vs untreated controls): 0%
COC(=O)CNC(=O)[C@@H](C)Oc1nn(-c2ccccn2)c(-c2cncc(F)c2)c1Cl [Example I-185]	90	100	100	90	80	90	90	100	100	80	80	90	80	80	90	80	100	90	100	100	Post-emergence action against VERPE in % ([3]; 320 g/ha, VERPE): 80%; Post-emergence action against VERPE in % ([3]; dosage 80 g/ha): 80%; Post-emergence action against ALOMY in % ([4]; 320 g/ha): 80%; Pre-emergence action against PHBPU in % ([6]; dosage 80 g/ha): 80%; Post-emergence action against SETVI in % (Setaria viridis (SETVI) [8]; dosage 320 g/ha): 80%; Pre-emergence action against POLCO in % ([9]; dosage 80 g/ha): 80%; Post-emergence action against VIOTR in % (Viola tricolor (VIOTR) [23]; 80 g/ha): 80%; Post-emergence action against VIOTR in % (Viola tricolor (VIOTR) [23]; 320 g/ha): 80%; Post-emergence action against POLCO in % ([10]; dosage 320 g/ha): 80%; Post-emergence action against MATIN in % ([13]; dosage 320 g/ha): 80%; Post-emergence action against ECHCG in % ([14]; dosage 320 g/ha): 90%; Post-emergence action against AVEFA in % (Avena fatua (AVEFA) [15]; 320 g/ha): 80%; Post-emergence action against AMARE in % [16, 27]: 80%; Pre-emergence action against MATIN in % ([17]; dosage 80 g/ha): 80%; Post-emergence action against ABUTH in % ([18]; 320 g/ha): 80%; Post-emergence action against ORYSA in % (Oryza sativa (ORYSA); [26]): 20%; Post-emergence action against LOLRI in % (Lolium rigidum (LOLRI) [24]; dosage 80 g/ha): 80%; Post-emergence action against LOLRI in % (Lolium rigidum (LOLRI) [24]; dosage 320 g/ha): 80%; Pre-emergence action against VERPE in % ([21]; dosage 80 g/ha): 80%
CCOC(=O)COc1nn(-c2ccccn2)c(-c2ccc(F)nc2)c1Br [Example I-86]	90	100	100	90	100	100	100	100	100	100	100	100	90	100	100	100	100	90	100	80	Post-emergence action against VERPE in % ([3]; 320 g/ha, VERPE): 80%; Post-emergence action against ALOMY in % ([4]; 80 g/ha): 100%; Post-emergence action against ALOMY in % ([4]; 320 g/ha): 100%; Post-emergence action against SETVI in % (Setaria viridis (SETVI) [8]; dosage 80 g/ha): 100%; Post-emergence action against SETVI in % (Setaria viridis (SETVI) [8]; dosage 320 g/ha): 100%; Post-emergence action against VIOTR in % (Viola tricolor (VIOTR) [23]; 80 g/ha): 80%; Post-emergence action against VIOTR in % (Viola tricolor (VIOTR) [23]; 320 g/ha): 90%; Post-emergence action against POLCO in % ([10]; dosage 320 g/ha): 90%; Pre-emergence action against ABUTH ([12]; 80 g/ha, scored visually after about 3 weeks vs untreated controls, 0% = like control plants): 80%; Post-emergence action against MATIN in % ([13]; dosage 320 g/ha): 80%; Post-emergence action against ECHCG in % ([14]; dosage 320 g/ha): 100%; Post-emergence action against AVEFA in % (Avena fatua (AVEFA) [15]; 320 g/ha): 100%; Post-emergence action against AMARE in % [16, 27]: 90%; Post-emergence action against ABUTH in % ([18]; 320 g/ha): 90%; Post-emergence action against LOLRI in % (Lolium rigidum (LOLRI) [24]; dosage 80 g/ha): 100%; Post-emergence action against LOLRI in % (Lolium rigidum (LOLRI) [24]; dosage 320 g/ha): 100%
